In patent US20110020359A1, “METHODS AND COMPOSITIONS FOR TREATING NEURONAL DAMAGE OR DEGENERATION” (California Institute of Technology, priority 2009, published 2011):

How the values were obtained:
[1] = tested on: dissociated rat P5-9 CGN cultures; assay: Cerebellar granule neuron (CGN) neurite outgrowth assay; type: cell-based; details: P7 rat CGNs
Protocol: Nitric acid-treated, 15-mm round German glass coverslips are coated with P-Orn in pH 6-8.5 borate buffer (at approximately 50 μg/ml) for about 1 hr at 37° C. and 5% CO2. CSPGs (at approximately 1 μg/ml) or polysaccharides enriched in the CS-A, CS-C, or CS-E sulfation motifs (at approximately 1 μg/ml) are coated on the P-Orn-coated coverslips overnight at 37° C. and 5% CO2. Cerebella from P5-9 Sprague Dawley rats are dissected, purified as described above, and cultured on the coated coverslips at a cell density of about 200 cells/mm^2. Neurons are grown in DMEM/F12, 1% FBS, and N1 supplement for about 24 hr.
In one example, inhibitors against MEK (PD98059, 25 μM; Calbiochem), EGFR (AG1478, 15 nM; Calbiochem), ROCK (Y27632, 5 μM; Calbiochem) and JNK (JNK Inhibitor II, 10 μM; Calbiochem) are added in solution at the start of culturing, and neurons are grown for 24 hr. For neurite outgrowth experiments from p75 knockout mice, cerebella from P5-7 mice, either C57BL/6 wild-type or p75−/− knockout mice, are dissected and purified as described above. Neurons are plated at a density of 200-300 cells/mm2 and cultured for about 24 hr. Cells are then fixed in 4% PFA/10% sucrose, immunostained with neuronal specific anti-class III β-tubulin antibody (TUJ1; Covance), and evaluated for neurite outgrowth. Neurons are imaged using a Nikon TE2000-S fluorescent microscope and quantified using the NIH software Image J. Statistical analysis is performed using the one-way ANOVA; n=50-200 cells per experiment.
P7 rat CGNs are grown for 24 hours on CS-E (1 μg/ml) in the presence of the CS-E antibody (CS-E Ab; 10 μg/ml).

[2] = tested on: Retinal ganglion cell axons; assay: Optic nerve regeneration assay; details: counted at 125-μm intervals from the crush site
Protocol: At 1-14 days post injury, mice are given an overdose of pentobarbital and are transcardially perfused with 4% PFA. Eyeballs still attached with the optic nerve are dissected and post-fixed in 4% PFA overnight. Following cryoprotection with 30% sucrose in PBS, tissues are embedded in O.C.T. and serial sectioned for 5-20 μm along the longitudinal direction of the nerve. For immunofluorescence labeling, the sections are washed with PBS, pre-incubated in a blocking buffer (approximately 1% BSA, 0.3%TX-100 in PBS) and followed by sequential incubations with primary antibodies, including mouse anti-CS-E (1:200), goat-anti-CTB (1:4000), or rabbit anti-IβIII-tubulin antibodies (Invitrogen). […] The retinal cryosections are mounted with Vectashield and visualized under a Nikon fluorescence microscope. To quantify the number of CTB-positive regenerating axons, the number of regenerating axons is counted at 125 μm stepwise from the crush site of the optic nerve. The total number of regenerating axons is estimated. To quantify the number of surviving retinal ganglion cells, the total number of βIII-tubulin positive cells is counted in at least 3 retinal sections per retina.
(1.7 mg/ml) antibody treatment placed around the crush site of the nerve are studied. […] The extent of axonal regrowth is assessed 2 weeks after injury.

[3] = Oligosaccharide microarray; type: binding
Protocol: Ozonolysis of the anomeric allyl group and linkage of CS compounds 1-41,2 to 1,2-(bisaminooxy)ethane3 proceeds as follows: oligosaccharide (0.51 μmol) is dissolved in MeOH (500 μL) and cooled to −78° C. O3 is bubbled through the reaction until a blue color persists (1 min). The reaction is then purged with N2 until colorless, quenched with Ph3P beads (3 mg), and gradually warmed to rt over 12 h. The reaction is filtered and the product concentrated to afford the desired aldehyde as a white solid. The aldehyde (0.51 μmol) is then reacted for 14 h at rt with 1,2-(bisaminooxy)ethane hydrochloride (1.4 mg, 15 μmol) that has been dissolved in H2O (100 μL) and pH adjusted to 5.0 with 1 M NaOH. The resulting oxime product is purified using a SepPak C18 column (500 mg, H2O) and Sephadex G-10 (CS-E disaccharide, H2O) or Sephadex G-25 (tetrasaccharides, H2O) to afford a white solid in quantitative yield (0.51 μmol). CS-A aminooxy: ESI MS: m/z: calculated for C32H48N4Na3O31S2: 1117.1; found 1117.0. CS-C aminooxy: ESI MS: m/z: calculated for C32H48N4Na3O31S2: 1117.1; found 1117.0. CS-E aminooxy: ESI MS: m/z: calculated for C32H46N4Na5O37S4: 1321.0; found 1321.0. CS-E di amminooxy: ESI MS: m/z: calculated for C18H28N3Na2O20S2: 716.1; found 716.0. […]

[4] = Pull-down with biotinylated CS-E; type: binding; details: COS-7 cell lysates, immunoblot
Excerpt: Pull down assays can be useful for identifying proteins which bind to CS (e.g. CS-A, CS-C, or CS-E). Pull down assays can also be used for identifying agents that disrupt the binding between CS and a known binding partner. Full-length human p75 cDNA (amino acids 1-427; Open Biosystems) is ligated into a pcDNA3 vector (Invitrogen), modified to fuse an HA tag to the 5′ end of the insert. Human NgR (amino acids 27-473; imaGenes) is ligated into a modified pAPtag-5 vector (GenHunter) which fuses a secretion signal sequence and a c-myc tag to the 3′ end of the insert. COS-7 cells are transfected with either NgR-myc, p75-HA, or both using the Lipofectamine (Invitrogen) method. Cells are lysed about 2 days after transfection with 0.5-2% Triton X-100 in PBS containing a protease inhibitor mixture (Roche) by rocking for 15-90 min at 4° C. The lysates are clarified by centrifugation at 5-25,000 rpm for 1-30 min.
Biotin is attached to the free amino group of the residual core peptides of CS-C and CS-E polysaccharides (Seikagaku). […]
Biotinylated CS-C or CS-E (approximately 280 μg each) in 100-500 μl of PBS is added to streptavidin agarose resin (about 140 μl; Pierce) and incubated at room temperature for about 1 hr. […] NgR-myc and p75-HA are detected by immunoblotting with myc-tag (Cell Signaling) or HA-tag (Sigma) antibodies.

## chondroitinaseABC
[1]
  inhibition of neurite outgrowth after digestion of CS-E polysaccharides: small extent of residual inhibition
[2]
  number of regenerating axons compared with control IgG: significantly more regenerating axons

B1: OMgp: oligodendrocyte myelin protein (OMgp) (protein, UniProt P23515 25-417, looked up)
Oligodendrocyte-myelin …: ICPLQCICTERHRHVDCSGRNLSTLPSGLQENIIHLNLSYNHFTDLHNQLTQYTNLRTLDISNNRLESLPAHLPRSLWNMSAANNNIKLLDKSDTAYQWNLKYLDVSKNMLEKVVLIKNTLRSLEVLNLSSNKLWTVPTNMPSKLHIVDLSNNSLTQILPGTLINLTNLTHLYLHNNKFTFIPDQSFDQLFQLQEITLYNNRWSCDHKQNITYLLKWMMETKAHVIGTPCSTQISSLKEHNMYPTPSGFTSSLFTVSGMQTVDTINSLSVVTQPKVTKIPKQYRTKETTFGATLSKDTTFTSTDKAFVPYPEDTSTETINSHEAAAATLTIHLQDGMVTNTSLTSSTKSSPTPMTLSITSGMPNNFSEMPQQSTTLNLWREETTTNVKTPLPS
[3]
  binding to CS-E polysaccharides, oligosaccharide microarray: bind to CS-E polysaccharides

B2: Full-length EphB3: full-length Ephrin receptor B3 (protein, UniProt P54753 1-998, looked up)
chain: MARARPPPPPSPPPGLLPLLPPLLLLPLLLLPAGCRALEETLMDTKWVTSELAWTSHPESGWEEVSGYDEAMNPIRTYQVCNVRESSQNNWLRTGFIWRRDVQRVYVELKFTVRDCNSIPNIPGSCKETFNLFYYEADSDVASASSPFWMENPYVKVDTIAPDESFSRLDAGRVNTKVRSFGPLSKAGFYLAFQDQGACMSLISVRAFYKKCASTTAGFALFPETLTGAEPTSLVIAPGTCIPNAVEVSVPLKLYCNGDGEWMVPVGACTCATGHEPAAKESQCRPCPPGSYKAKQGEGPCLPCPPNSRTTSPAASICTCHNNFYRADSDSADSACTTVPSPPRGVISNVNETSLILEWSEPRDLGGRDDLLYNVICKKCHGAGGASACSRCDDNVEFVPRQLGLTERRVHISHLLAHTRYTFEVQAVNGVSGKSPLPPRYAAVNITTNQAAPSEVPTLRLHSSSGSSLTLSWAPPERPNGVILDYEMKYFEKSEGIASTVTSQMNSVQLDGLRPDARYVVQVRARTVAGYGQYSRPAEFETTSERGSGAQQLQEQLPLIVGSATAGLVFVVAVVVIAIVCLRKQRHGSDSEYTEKLQQYIAPGMKVYIDPFTYEDPNEAVREFAKEIDVSCVKIEEVIGAGEFGEVCRGRLKQPGRREVFVAIKTLKVGYTERQRRDFLSEASIMGQFDHPNIIRLEGVVTKSRPVMILTEFMENCALDSFLRLNDGQFTVIQLVGMLRGIAAGMKYLSEMNYVHRDLAARNILVNSNLVCKVSDFGLSRFLEDDPSDPTYTSSLGGKIPIRWTAPEAIAYRKFTSASDVWSYGIVMWEVMSYGERPYWDMSNQDVINAVEQDYRLPPPMDCPTALHQLMLDCWVRDRNLRPKFSQIVNTLDKLIRNAASLKVIASAQSGMSQPLLDRTVPDYTTFTTVGDWLDAIKMGRYKESFVSAGFASFDLVAQMTAEDLLRIGVTLAGHQKKILSSIQDMRLQMNQTLPVQV
modifications: full-length
notes: full-length Ephrin receptor B3
[4]
  pull-down by CS-E: is pulled down
